Data as given in patent publication US8067424B2, “Selective inhibitors for cyclin-dependent kinases” (Emory University, priority 2007, dated 2011).
Read-outs that look alike come from different tables or passages of the source.

Assays:
IGROV1 [1] = assay: cells; settings: Homo sapiens
HOP-92 = assay: cells; settings: Homo sapiens
HT29 = assay: cells; settings: Homo sapiens
IGROV1 [2] = tested on: IGROV1
HS 578T = assay: cells; settings: Homo sapiens
ACHN = settings: for Mean Optical Densities / Percent Growth: ACHN
A549/ATCC = settings: for Mean Optical Densities / Percent Growth: A549/ATCC
MCF-7 tumors = assay: MCF-7 tumor growth in nude mice, BS-194 subcutaneous; type: in vivo, Balb/c nude mice; settings: subcutaneous twice daily, 14 days
Experimental: In all, 32 female 8- to 10-week Balb/c nude mice (Harlan UK) were randomly divided into three groups. The mice received 0.72 mg 60-day release E2 pellets (Innovative Research of America, USA), subcutaneously implanted in one flank. MCF7 cells, were trypsinized and 5×10^6 cells in 0.1 ml of PBS were subcutaneously injected into the other flank of each mouse and tumor volumes were measured every 2-3 days, according to the formula (tumor width squared×tumor length)/2. Animal weight was also recorded throughout the course of the study. The animals were injected subcutaneously with BS-194, prepared in 10% DMSO, 50 mM HCl, 5% Tween 20, and 85% Saline, twice daily for 14 days, at which point the animals were sacrificed. The xenograft experiments were conducted after appropriate ethical approval and licensing was obtained in accordance with the UK ‘Guidance on the operation of animals (Scientific Procedure) Act 1986 (HMSO, London, UK, 1990).

MALME-3M = assay: cells; settings: Homo sapiens
COLO 205 = assay: cells; settings: Homo sapiens
HOP-62 = assay: cells; settings: Homo sapiens
[3] = CAKI-1, log10 concentration −4.0
[4] = CAKI-1, log10 concentration −5.0
[5] = CAKI-1, log10 concentration −6.0
[6] = CAKI-1, log10 concentration −7.0
[7] = CAKI-1, log10 concentration −8.0
[8] = SF-539, log10 concentration −4.0
[9] = SF-539, log10 concentration −5.0
[10] = SF-539, log10 concentration −6.0
[11] = SF-539, log10 concentration −7.0
[12] = SF-539, log10 concentration −8.0
[13] = IGROV1, log10 concentration −4.0
[14] = IGROV1, log10 concentration −5.0
[15] = IGROV1, log10 concentration −6.0
[16] = IGROV1, log10 concentration −7.0
[17] = IGROV1, log10 concentration −8.0
[18] = HCT-116, log10 concentration −4.0
[19] = HCT-116, log10 concentration −5.0
[20] = HCT-116, log10 concentration −6.0
[21] = HCT-116, log10 concentration −7.0
[22] = HCT-116, log10 concentration −8.0

## CC(C)c1cnn2c(NCc3ccccc3)cc(N[C@@H](CO)[C@H](O)CO)nc12 [ICEC0318, (3S)-3-(7-(Benzylamino)-3-isopropylpyrazolo[1,5-a]pyrimidin-5-ylamino)butane-1,2,4-triol]
CAKI-1; CAKI-1 (Renal Cancer)
  TGI: >1.00E−4
CAKI-1; [3]
  Mean Optical Densities: 0.358
  Percent Growth: 2%
CAKI-1; [4]
  Mean Optical Densities: 0.372
  Percent Growth: 5%
CAKI-1; [5]
  Mean Optical Densities: 0.423
  Percent Growth: 18%
CAKI-1; [6]
  Mean Optical Densities: 0.631
  Percent Growth: 71%
CAKI-1; [7]
  Mean Optical Densities: 0.704
  Percent Growth: 90%
IGROV1 [1]; IGROV-1
  GI50: 210 nM
IGROV1 [1]; IGROV-1, read-out: LC50
  CC50: > 100000 nM
MCF7; MCF7 (Breast Cancer)
  TGI: >1.00E−4
MCF7; MCF7, log10 concentration −4.0
  Mean Optical Densities: 0.229
  Percent Growth: 6%
MCF7; MCF7, log10 concentration −5.0
  Mean Optical Densities: 0.237
  Percent Growth: 7%
MCF7; MCF7, log10 concentration −6.0
  Mean Optical Densities: 0.244
  Percent Growth: 7%
MCF7; MCF7, log10 concentration −7.0
  Mean Optical Densities: 0.805
  Percent Growth: 72%
MCF7; MCF7, log10 concentration −8.0
  Mean Optical Densities: 1.098
  Percent Growth: 107%
SF-539; SF-539 (CNS Cancer)
  TGI: 5.81E−7
SF-539; [8]
  Mean Optical Densities: 0.138
  Percent Growth: −81%
SF-539; [9]
  Mean Optical Densities: 0.327
  Percent Growth: −55%
SF-539; [10]
  Mean Optical Densities: 0.540
  Percent Growth: −25%
SF-539; [11]
  Mean Optical Densities: 1.950
  Percent Growth: 82%
SF-539; [12]
  Mean Optical Densities: 2.183
  Percent Growth: 98%
HOP-92; HOP-92
  GI50: 369 nM
HOP-92; HOP-92, read-out: LC50
  CC50: > 100000 nM
A498; A498 (Renal Cancer)
  TGI: 4.83E−7
A498; A498, log10 concentration −4.0
  Mean Optical Densities: 0.386
  Percent Growth: −54%
A498; A498, log10 concentration −5.0
  Mean Optical Densities: 0.365
  Percent Growth: −56%
A498; A498, log10 concentration −6.0
  Mean Optical Densities: 0.414
  Percent Growth: −50%
A498; A498, log10 concentration −7.0
  Mean Optical Densities: 1.321
  Percent Growth: 109%
A498; A498, log10 concentration −8.0
  Mean Optical Densities: 1.280
  Percent Growth: 100%
HT29; HT-29
  GI50: 336 nM
HT29; HT-29, read-out: LC50
  CC50: > 100000 nM
M14; M14 (Melanoma)
  TGI: 1.00E−6
M14; M14, log10 concentration −4.0
  Mean Optical Densities: 0.125
  Percent Growth: −62%
M14; M14, log10 concentration −5.0
  Mean Optical Densities: 0.246
  Percent Growth: −26%
M14; M14, log10 concentration −6.0
  Mean Optical Densities: 0.333
M14; M14, log10 concentration −7.0
  Mean Optical Densities: 1.032
  Percent Growth: 97%
M14; M14, log10 concentration −8.0
  Mean Optical Densities: 1.074
  Percent Growth: 103%
IGROV1 [2]; IGROV1 (Ovarian Cancer)
  TGI: >1.00E−4
IGROV1 [2]; [13]
  Mean Optical Densities: 0.451
  Percent Growth: 4%
IGROV1 [2]; [14]
  Mean Optical Densities: 0.510
  Percent Growth: 10%
IGROV1 [2]; [15]
  Mean Optical Densities: 0.528
  Percent Growth: 12%
IGROV1 [2]; [16]
  Mean Optical Densities: 1.088
  Percent Growth: 68%
IGROV1 [2]; [17]
  Mean Optical Densities: 1.429
  Percent Growth: 103%
HCT-116; HCT-116 (Colon Cancer)
  TGI: >1.00E−4
HCT-116; [18]
  Mean Optical Densities: 0.170
  Percent Growth: 1%
HCT-116; [19]
  Mean Optical Densities: 0.179
  Percent Growth: 2%
HCT-116; [20]
  Mean Optical Densities: 0.182
  Percent Growth: 2%
HCT-116; [21]
  Mean Optical Densities: 0.749
  Percent Growth: 62%
HCT-116; [22]
  Mean Optical Densities: 1.058
  Percent Growth: 95%
HS 578T
  GI50: 276 nM
HS 578T; read-out: LC50
  CC50: > 100000 nM
ACHN; ACHN (Renal Cancer)
  TGI: >1.00E−4
ACHN; log10 concentration −4.0
  Mean Optical Densities: 0.343
  Percent Growth: 5%
ACHN; log10 concentration −5.0
  Mean Optical Densities: 0.347
  Percent Growth: 5%
ACHN; log10 concentration −6.0
  Mean Optical Densities: 0.358
  Percent Growth: 6%
ACHN; log10 concentration −7.0
  Mean Optical Densities: 1.080
  Percent Growth: 75%
ACHN; log10 concentration −8.0
  Mean Optical Densities: 1.302
  Percent Growth: 96%
A549/ATCC; A549/ATCC (Non-Small Cell Lung Cancer)
  TGI: >1.00E−4
A549/ATCC; log10 concentration −4.0
  Mean Optical Densities: 0.346
  Percent Growth: 4%
A549/ATCC; log10 concentration −5.0
  Mean Optical Densities: 0.417
  Percent Growth: 10%
A549/ATCC; log10 concentration −6.0
  Mean Optical Densities: 0.422
  Percent Growth: 11%
A549/ATCC; log10 concentration −7.0
  Mean Optical Densities: 1.369
  Percent Growth: 94%
A549/ATCC; log10 concentration −8.0
  Mean Optical Densities: 1.447
  Percent Growth: 101%
MCF-7 tumors
  Change in animal weight: nearly constant
MALME-3M
  GI50: 404 nM
MALME-3M; read-out: LC50
  CC50: > 100000 nM
COLO 205; COLO 205
  GI50: 147 nM
COLO 205; COLO 205, read-out: LC50
  CC50: 993 nM
HOP-62; HOP-62
  GI50: 243 nM
HOP-62; HOP-62, read-out: LC50
  CC50: > 100000 nM
